One data set deals with kinases. The settings on record: 1 µM, ref Cromm et al, 2018; cited from earlier work. As to the method: page 11: Comment 5: Reviewer Comment: “Line 299: “indicating potential [defactinib] toxicity beyond the 2.5 μM”. […] The high non- selectivity of defactinib at low micromolar doses indicates the potential of off-target effects and toxicity beyond 2.5 µM.
Data set [1] deals with 97 kinases (kinase named in endpoint) (Homo sapiens, UniProt P12931). The experiment in a line: Eurofins KINOMEscan profiling, 97 kinases. The settings on record: read-out: % Ctrl, SRC.
Method: (§4) This experiment was performed by Eurofins KINOMEscan™ Profiling Service. […] The lysates were centrifuged and filtered, the remaining kinases were produced in HEK-293 cells and subsequently tagged with DNA for qPCR detection. […] The liganded beads were blocked with excess biotin and washed with blocking buffer (SeaBlock (Pierce), 1% BSA, 0.05% Tween-20, 1 mM DTT). […] Test compounds were prepared as 100x stocks in 100% DMSO and directly diluted into the assay. All reactions were performed in polypropylene 384-well plates in a final volume of 0.02 ml. […] The kinase concentration in the eluates was measured by qPCR.
(§5) (negative control signal - positive control signal)] x 100. ( b) AccompanyingSelectivity Scores or S -scores
(§6) which are quantitative measures of compound selectivity. They are calculated by dividing the number of
(§7) kinases that compounds bind to by the total number of distinct kinases tested, excluding mutant variants.
(§8) S(35)= ( num ber of non -mutant kinases with %Ctrl <35)/(number of non- mutant kinases tested)], S(10)=
(§9) non- mutant kinases with %Ctrl <1)/(number of non- mutant kinases tested)].
For data set [2], the system named is 97 kinases (kinase named in endpoint). The data set can be described thus: Eurofins KINOMEscan profiling, 97 kinases. The note with it: 1 µM.
Method: as §4, §5, §6, §7, §8, §9
Data set [3] deals with FAK/paxillin focal adhesions in SK-MEL-147 cells. The experiment in a line: cells. Format: cell-based, human. The settings on record: 48 h. As to the method: SK-MEL-147 cells were collected and seeded into the inner 60 wells of 96-well, black-walled plates (Agilent, 204626-100) at 1000 cells per well in 100 uL of complete DMEM overnight in a 37 °C incubator with 5% CO2. The next day, the serum-containing media was removed from each well and cells were washed with PBS before treating the cells in serum-free DMEM and 0.5% DMSO for 48 h. After treatment, cells were pre-fixed with 4% paraformaldehyde diluted in 1x PBS being added directly to the culture medium for 2 min. Pre-fixation media was then removed, and 4% paraformaldehyde diluted in 1X PBS was added to each well for 3 min at room temperature. Fixative was then removed and neutralized twice with 100 mM Tris Buffered Saline in MilliQ water and then washed once with 0.1% Tween-20 in PBS. Cells were permeabilized with 0.5% Triton-X 100 in PBS for 5 min at room temperature, then the permeabilization buffer was removed, and cells were washed twice with 0.1% Tween-20 in PBS. Cells were then blocked with 10% Goat Serum in PBS for 1 h at room temperature. […] Antibody stain was then removed, and cells were washed twice with 0.1% Tween-20 in PBS. […] Cells were then washed twice with 0.1% Tween-20 in PBS and DAPI stain (Sigma-Aldrich, D9542-5MG, 1 mg/mL) diluted 1:40,000 in PBS in the dark for 5 min at room temperature. DAPI stain was then removed, and cells were washed twice with 0.1% Tween-20 in PBS, then twice with PBS for 5 min per wash on an orbital shaker. Plates were then imaged on the BioTek Cytation C10 Confocal Imaging Reader. Three fields of view were taken per well per run and analyzed in the accompanying Agilent BioTek Gen5 Software (version 3.16). The following software parameters were used to quantify FAK-containing, paxillin-containing, and FAK/paxillin-containing focal adhesions: area (0.25–33); circularity (<0.602); FAK signal to noise ratio (>2.55), FAK integrated density (SKMEL147 > 4200; WM88 >9400), paxillin signal to noise ratio (>4.5), paxillin integrated density (>8000), presence of F-actin (phalloidin) staining; and limited proximity to DAPI staining (integrated density <4000).

A short description of a further data set: in vitro. The note with it: plasma.
The conditions of data set [4]: mouse, in vivo, ip.
Method: (§10) Cell permeability of peptide drugs was determined by fluorescence measurement of TAMRA-labeled peptides in 96-well plates and ClarioStar Plus plate reader using BMG ClarioStar MARS software (version 4.20). […] Percent uptake was calculated as background-subtracted fluorescence absorbed by cells/fluorescence of peptide in media-only wells, then made relative to TAMRA-Alkyne. Three biological replicates (n = 3) were performed per cell line per treatment group. Peptide proteolysis was measured using immobilized Trypsin-agarose resin (Thermo Fisher) and quantification by LC-MS. […] In vivo pharmacokinetics were performed by the UACC Analytical Chemistry Shared Resource. […] The mice were fed NIH-31 irradiated pellets (Tekland Premier, Madison, Wisconsin), and reverse osmosis water was freely available. […] The average plasma concentration versus time data were analyzed using PKSolver (version 2.0) by a noncompartmental approach.
Data set [5] is described as follows: In vivo pharmacokinetics, single i.p. administration. The note with it: Cmax vs IC50 0.8 µM.
Method: as §10
The conditions of data set [6]: mouse.
A short description of the next data set: in vivo. The settings on record: female, Balb/cJ, mouse, ip.
The nature of data set [7]: Liver microsomal stability. The note with it: human liver microsomes.
The test system of data set [8] is SK-MEL-147 cells. The data set can be described thus: Cellular uptake of TAMRA-labeled peptides. Type of data set: in vitro ADME, human. The settings on record: TAMRA-tagged, cell line not given.
Data set [9] concerns SK-MEL-147 cells. The experiment in a line: LDH release assay. Type of data set: cell-based, human. The settings on record: 100 μM to 200 nM, 45 min, n = 3. As for the experimental part: (§1) Non-specific membrane disruption was assessed quantitatively by measuring the lactate dehydrogenase (LDH) activity in the medium using the cytoscan-LDH cytotoxicity assay kit (G-Biosciences Inc., St Louis, Mo, USA). SK-MEL-147 and WM88 human melanoma cells were plated in 96-well white-walled plates at 5k cells/well in 90 uL of serum complete DMEM and returned to a 37 °C incubator with 5% CO2 overnight. The cells were then treated in triplicate with 2012, 2020 (negative control), and Gambogic Acid (positive control) at titrating concentrations ranging from 100 μM to 200 nM and allowed to incubate for 45 min in a 37 °C incubator with 5% CO2. About 50 µl of supernatant was transferred from each well to a new flat-bottom 96-well white-walled plate and mixed with 50 µl of recombinant substrate mixture. This reaction was allowed to occur at room temperature for 30 min protected from light. Then, 50 µl of stop solution was added to terminate the reaction. […] Results were reported as 490 nm values […], averaged, three biological replicates were repeated per cell line, and graphs were generated using GraphPad Prism (version 10.3.1), reporting mean LDH activity ± SD.
(§2) LDH release assay preformed in human melanoma
(§3) Acid (pos. control) at titrating concentrations ranging from 100 μ M to 200 nM for 45 minutes. […]
Background: Release of lactate dehydrogenase indicates damage to the cell membrane.

For the next data set, the system named is WM88 cells. The experiment in a line: LDH release assay. Type of data set: cell-based, human. The note with it: 100 μM to 200 nM, 45 min, n = 3. As to the method:
as §1, §2, §3

The next data set concerns trypsin. The experiment in a line: Trypsin proteolytic resistance assay. The settings on record: immobilized trypsin-agarose resin.

Where two headings read alike, the source gives them in different places. Bridge positions count the residues as written; N and C are the ends. Square brackets hold non-standard residues; d marks the D form. Peptide text beside a SMILES is read from it. * marks the point of attachment. Myristoyl = CCCCCCCCCCCCCC(=O)*; R8 = C=CCCCCCC[C@@](C)(N)C(=O)O; S5 = C=CCCC[C@](C)(N)C(=O)O

We go through three compounds from article PMC11871066, “Structure-based discovery of hydrocarbon-stapled paxillin peptides that block FAK scaffolding in cancer” (Nature Communications, 2025).

Chain of 97 kinases (kinase named in endpoint) (Homo sapiens, UniProt P12931) (P12931 whole entry): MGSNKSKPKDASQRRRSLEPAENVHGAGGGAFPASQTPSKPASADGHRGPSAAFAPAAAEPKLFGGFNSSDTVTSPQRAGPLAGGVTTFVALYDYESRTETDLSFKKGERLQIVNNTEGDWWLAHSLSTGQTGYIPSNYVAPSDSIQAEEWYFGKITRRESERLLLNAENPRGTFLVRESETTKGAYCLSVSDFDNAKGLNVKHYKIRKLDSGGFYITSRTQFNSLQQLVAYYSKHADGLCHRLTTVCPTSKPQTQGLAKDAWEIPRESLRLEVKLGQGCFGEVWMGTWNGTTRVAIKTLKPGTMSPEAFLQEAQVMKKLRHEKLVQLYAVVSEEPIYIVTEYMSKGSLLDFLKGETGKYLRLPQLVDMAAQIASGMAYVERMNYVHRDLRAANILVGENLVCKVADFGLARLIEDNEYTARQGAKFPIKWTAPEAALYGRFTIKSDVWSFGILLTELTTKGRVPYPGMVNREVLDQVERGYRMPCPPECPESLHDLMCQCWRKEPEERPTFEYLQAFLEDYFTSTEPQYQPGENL

As to `CNC(=O)c1ccc(Nc2ncc(C(F)(F)F)c(NCc3nccnc3N(C)S(C)(=O)=O)n2)cc1` [defactinib], the “number of kinases bound with more than 65% inhibition” value in the data set with kinases was no less than 100. Moreover, the remaining binding at 1 µM in data set [1] stood at 36%. Besides, in data set [2], the “additional kinases other than FAK inhibited” value is 44 and the “kinases inhibited >50% (interactions mapped) out of 97 tested” value came out at 45. In addition, in [2] (90 non-mutant kinases), the “selectivity score S(1)” value came to 0.033, the “selectivity score S(10)” value was 0.122 and the “selectivity score S(35)” value is on record as 0.256. In addition, in data set [2] (%Ctrl <1, 90 non-mutant kinases), the “Number of Hits, S(1)” value is on record as 3. For the same compound, in data set [2] (%Ctrl <10, 90 non-mutant kinases), the “Number of Hits, S(10)” value came to 11. For the same compound, the “Number of Hits, S(35)” value in data set [2] (%Ctrl <35, 90 non-mutant kinases) is on record as 23. The IC50 in data set [3] (Homo sapiens, SK-MEL-147, n = 3, read-out: IC50, reduction of FAK-containing focal adhesions) was 11.1 µM. Also, in [3] (Homo sapiens, SK-MEL-147, n = 3, read-out: IC50, reduction of dual FAK-paxillin containing focal adhesions), the IC50 stood at 11.2 µM. The IC50 in [3] (Homo sapiens, SK-MEL-147, n = 3, read-out: IC50, reduction of paxillin-containing focal adhesions) was 18.7 µM.
In “in vitro”, `CCCCCCCCCCCCCC(=O)N[C@@H](CC(N)=O)C(=O)N[C@@H](CC(C)C)C(=O)N[C@]1(C)CCCCCCC=CCCC[C@@](C)(C(=O)N[C@@H](CCC(=O)O)C(=O)N[C@@H](CC(C)C)C(=O)N[C@@H](CC(N)=O)C(N)=O)NC(=O)[C@H](CC(C)C)NC(=O)[C@H](CC(C)C)NC(=O)[C@H](CCCNC(=N)N)NC(=O)[C@H](CC(=O)O)NC(=O)[C@H](CC(C)C)NC(=O)[C@H](CCC(=O)O)NC1=O` [compound 2012] displayed a fraction unbound of less than 0.01. The “Cmax, molar concentration” value in data set [4] is 48.5 µM. Moreover, the plasma clearance in [4] is reported as 0.26 mL/min/kg. Further, in [5], the “excess of plasma concentration over focal adhesion IC50” value turned out to be 60 fold. Moreover, the “plasma stability t1/2” value in [6] is greater than 2 h. Moreover, the remaining binding at 1 µM in data set [1] turned out to be 99%. Besides, the highest level in “in vivo” (Cmax) was 89.4 µg/mL. Besides, in “in vivo”, the half-life was 16.5 h. This compound returned a level at 0.5 h in “in vivo” (2012 concentration) of 11.4 µg/mL. Moreover, the “remaining in liver microsomes” value in data set [7] (0 min, Rep1) amounted to 98; in [7] (0 min, Rep2) it was 102; in [7] (5 min, Rep1), 98; in data set [7] (5 min, Rep2), 94; in data set [7] (15 min, Rep1), 100; in [7] (15 min, Rep2) it was 98. The “remaining in liver microsomes” value worked out at 100 in data set [7] (30 min, Rep1); 101 in data set [7] (30 min, Rep2); 97 in data set [7] (60 min, Rep1); 94 in data set [7] (60 min, Rep2).
In the case of `CCCCCCCCCCCCCC(=O)N[C@@H](CC(N)=O)C(=O)N[C@@H](CC(C)C)C(=O)N[C@]1(C)CCCCCCC=CCCC[C@@](C)(C(=O)N[C@@H](CCC(=O)O)C(=O)N[C@@H](CCC(=O)O)C(=O)N[C@@H](CC(N)=O)C(N)=O)NC(=O)[C@H](CC(C)C)NC(=O)[C@H](CC(C)C)NC(=O)[C@H](CCCNC(=N)N)NC(=O)[C@H](CC(=O)O)NC(=O)[C@H](CCC(=O)O)NC(=O)[C@H](CCC(=O)O)NC1=O` [compound 2020] (Myristoyl-NL[R8]EEDRLL[S5]EEN-NH2; staple 3-10), the “cell permeability compared to TAMRA-Alkyne control” value with SK-MEL-147 cells [8] is listed as “approximately threefold higher”. The IC50 in data set [3] was greater than 25 µM. Moreover, the “LDH release, plasma membrane damage” value in the data set on SK-MEL-147 cells [9] is on record as “do not result in damage to plasma membrane”. Besides, the “LDH release, plasma membrane damage” value in the data set on WM88 cells is recorded as “do not result in damage to plasma membrane”. In the data set with trypsin, this compound gave a fraction remaining at 0.25 h, 100 µM of 97%; a share remaining at 0.5 h, 100 µM of 99%; a share remaining at 1 h, 100 µM of 98%; a share remaining at 2 h, 100 µM of 95%. Further, in the data set on trypsin, the amount remaining at 3 h, 100 µM was 90%; the share remaining at 4 h, 100 µM is 92%; the fraction remaining at 6 h, 100 µM was 93%; the share remaining at 8 h, 100 µM came out at 93%. In addition, in the data set on trypsin, the fraction remaining at 24 h, 100 µM is 91% and the amount remaining at 48 h, 100 µM turned out to be 89%.

By IC50 is commonly meant the concentration that inhibits the measured activity by half. As usually defined, the fraction unbound is the share of the substance not bound to proteins or other matrix. A low value points to extensive binding. As a reminder, the Cmax is the maximum level reached in the sampled fluid or tissue. For orientation: half-life means how long it takes for the measured level to halve. Low readings indicate rapid decline, high ones slow decline. One may read the share remaining as what is left of the initial amount, in per cent. Low readings indicate a greater loss, high ones greater stability.
